Patent US4556676A, “Antidepressant derivatives of trans-4-phenyl-1,2,3,4-tetrahydro-1-naphthalenamine” (priority 1980, dated 1985)
Structures can show the parent of a compound that is named as a salt. Where two headings read alike, the source gives them in different places.

Tests used:
mice = test: Reduction of behavioral despair in vivo (modified Porsolt mouse swim test); parameters: species or system Swiss-Webster CD male mice; settings: sc, read-out: MPE50
Procedure: A number of Swiss-Webster CD male mice weighing 25-30 g. (Charles River Laboratories, Inc.; Wilmington, Mass.) were housed under standard laboratory conditions for at least one week prior to experimentation. […] One hour later the mice were placed individually in 1 liter beakers containing 7 cm. of 25° C. water. Beginning at 2 min. after immersion, each mouse was observed every 30 sec. for the presence of immobility, characterized as floating motionless in the water. A total of ten observations were made, each being scored as "0=animal moving, swimming, attempting to escape" or "1=animal immobile". The number of positive observations for each mouse was then totaled and a mean immobility score calculated for the group of ten.

[1] = test system: 5-hydroxytryptophan-induced tremors; test: Potentiation of 5-hydroxytryptophan-induced behavioral symptoms (tremors) in vivo; parameters: species or system Swiss-Webster CD male mice; settings: for ED50: Mus musculus; for ED50 (tremors): then 100 mg./kg. i.p. 5HTP one hour later, Hydrochloride
Procedure: The mice were rated for the presence of this symptom by a "blinded observer" at 10-20 min. after 5HTP treatment.

[2] = test system: synaptosomal uptake of dopamine (DA); test: Blockade of synaptosomal uptake of dopamine (DA) in vitro, rat corpus striatum; assay type: biochemical, Sprague-Dawley CD male rats; settings: rat corpus striatum synaptosomes
Procedure: (§1) Sprague-Dawley CD male rats weighing 180-220 g. (Charles River Laboratories, Inc.; Wilmington, Mass.) were used in this procedure. A crude synaptosomal fraction of rat corpus striatum (for 5HT and DA uptake) or hypothalmus (for NE uptake) tissue was prepared by homogenizing tissue (25 ml./g. wet) in ice-cold 0.32M sucrose containing 1 mg./ml. glucose, 0.0001M EDTA and tris(hydroxymethyl)aminomethane to pH 7.4. The homogenate was centrifuged at 1000×g for 10 min. at 0°-4° C., the pellet discarded and the supernatant centrifuged at 17,000×g for 20 min. at 0°-4° C. The resulting pellet was resuspended in the ice-cold 0.32M sucrose pH 7.4 solution at 10 ml./g. original tissue (wet) for corpus striatum and 5 ml./g. original tissue (wet) for hypothalmus. […] Duplicate 0.1 ml. aliquots of the tissue suspension were incubated for 10 min. at 37° C. with 0.02 ml. of a solution containing a known quantity of the named test compound and 1.0 ml. of the incubation buffer containing additionally 1 mg./ml. glucose and 0.0001 mM labeled monoamine (^14 C-5HT, ^14 C-DA or ^3 H-NE). After incubation, the mixtures were filtered through 0.45 micron Millipore filters and the filters washed with the incubation buffer. […] Uptake was calculated as picomoles 5HT, DA or NE per mg. protein (protein was determined by measurement with Folin phenol reagent).

[3] = test system: synaptosomal uptake of norepinephrine (NE); test: Blockade of synaptosomal uptake of norepinephrine (NE) in vitro, rat hypothalmus; assay type: biochemical, Sprague-Dawley CD male rats; settings: rat hypothalmus synaptosomes
Procedure: as §1

[4] = test system: synaptosomal uptake of serotonin (5HT); test: Blockade of synaptosomal uptake of serotonin (5HT) in vitro, rat corpus striatum; assay type: biochemical, Sprague-Dawley CD male rats; settings: rat corpus striatum synaptosomes, 5HT uptake
Procedure: as §1

uptake of serotonin = settings: known drugs; cited from earlier work
[5] = mice, oral, no observed tremors at 32 mg./kg., highest dose tested, read-out: ED50 (tremors), footnoted
[6] = mice, subcutaneous, 1 hour before test
[7] = po, 1 h, read-out: ED50 (tremors), mice, oral, then 100 mg./kg. i.p. 5HTP one hour later

Row | SMILES | IC50 [3] | IC50 [2] | other results
1 | CN[C@@H]1CC[C@@H](c2ccc(Cl)c(Cl)c2)c2ccccc21 (relative stereo) [Example 1, Trans-(1S)(1R)-N-methyl-4-(3,4-diclorophenyl)-1,2,3,4-tetrahydro-1-naphthalenamine Hydrochloride] |  |  | ED50 (mice; 1 h): 1.5 mg/kg; ED50 ([1]; po, 1 h, read-out: ED50 (oral dosage level at which tremors elicited), mice, oral, then 100 mg./kg. i.p. 5HTP one hour later, tremors): 3.2 to 10 mg/kg
2 | CN[C@@H]1CC[C@@H](c2ccc(Cl)cc2)c2ccccc21.Cl (relative stereo) [Example 4, Trans-N-methyl-4-(4-chlorophenyl)-1,2,3,4-tetrahydro-1-naphthalenamine Hydrochloride] |  |  | ED50 (tremors) ([1]; mice, oral): 10-32 mg./kg. - oral; IC50 ([2]; Hydrochloride): 0.11 µM
3 | CN[C@@H]1CC[C@@H](c2ccc(Cl)cc2)c2ccccc21.Cl (relative stereo) [Example 5, Trans-N-methyl-4-(4-chlorophenyl)-1,2,3,4-tetrahydro-1-naphthalenamine Hydrochloride] |  |  | ED50 [1, 5]: > 32 mg/kg
4 | CN[C@@H]1CC[C@@H](c2ccc(Cl)cc2)c2ccccc21.Cl (relative stereo) [Example 6, Trans-N-methyl-4-(4-chlorophenyl)-1,2,3,4-tetrahydro-1-naphthalenamine Hydrochloride] |  |  | ED50 (mice; [6]): 0.88 mg/kg; ED50 (tremors) ([1]; mice, oral): 3.2-10 mg./kg. - oral
5 | CN[C@@H]1CC[C@@H](c2ccc(F)cc2)c2ccccc21 (relative stereo) [Example 7, Trans-(1S)(1R)-N-methyl-4-(4-fluorophenyl)-1,2,3,4-tetrahydro-1-naphthalenamine Hydrochloride] | 0.027 µM | 0.22 µM | ED50 (mice; 1 h): 2.3 mg/kg; ED50 ([1]; po, read-out: ED50 (tremors), footnoted, mice, oral, no observed tremors at 32 mg./kg., highest dose tested): > 32 mg/kg
6 | CN[C@@H]1CC[C@@H](c2ccc(C(F)(F)F)cc2)c2ccccc21 (relative stereo) [Example 8] | 0.69 µM | 4.4 µM | ED50 (mice; [6]): > 10 mg/kg; ED50 [1, 7]: 10 to 32 mg/kg
7 | CN[C@@H]1CC[C@@H](c2cccc(C(F)(F)F)c2)c2ccccc21 (relative stereo) [Example 9, Trans-(1S)(1R)-N-methyl-4-(3-trifluoromethylphenyl)-1,2,3,4-tetrahydro-1-naphthalenamine Maleate] | 0.26 µM | 2.6 µM | ED50 (mice; 1 h): > 32 mg/kg; ED50 [1, 7]: 10 to 32 mg/kg
8 | CN[C@@H]1CC[C@@H](c2ccc(Cl)c(C(F)(F)F)c2)c2ccccc21 (relative stereo) [Example 10] |  | 7.3 µM | ED50 (mice; [6]): < 32 mg/kg; ED50 [1, 7]: 10 to 32 mg/kg
9 | CN[C@@H]1CC[C@@H](c2ccc(Cl)cc2)c2ccc(Cl)cc21 (relative stereo) [Example 11, Trans-(1S)(1R)-N-methyl-4-(4-chlorophenyl)-7-chloro-1,2,3,4-tetrahydro-1-naphthalenamine Hydrochloride] | 0.028 µM | 0.045 µM | IC50 [4]: 0.16 µM; ED50 (mice; [6]): 6.4 mg/kg
10 | CN[C@@H]1CC[C@@H](c2ccc(Br)cc2)c2ccccc21 (relative stereo) [Example 12, Trans-(1S)(1R)-N-methyl-4-(4-bromophenyl)-1,2,3,4-tetrahydro-1-naphthalenamine Hydrochloride] | 0.029 µM | 0.08 µM | IC50 [4]: 0.09 µM
11 | CN[C@@H]1CC[C@@H](c2ccc(OC)cc2)c2ccccc21 (relative stereo) [Example 13, Trans-(1S)(1R)-N-methyl-4-(4-methoxyphenyl)-1,2,3,4-tetrahydro-1-naphthalenamine Hydrochloride] | 0.15 µM | 0.4 µM | 
12 | CN[C@@H]1CC[C@@H](c2ccccc2OC)c2ccccc21 (relative stereo) [Example 14] | 0.48 µM | 5.7 µM | IC50 [4]: 4.5 µM; ED50 (mice; [6]): > 32 mg/kg; ED50 [1, 5]: > 32 mg/kg
13 | CN[C@@H]1CC[C@@H](c2cccc(OC)c2)c2ccccc21 (relative stereo) [Example 15] | 0.06 µM | 0.53 µM | IC50 [4]: 0.34 µM
14 | CN[C@@H]1CC[C@@H](c2ccc(Cl)cc2Cl)c2ccccc21 (relative stereo) [Example 16, Trans-(1S)(1R)-N-methyl-4-(2,4-dichlorophenyl)-1,2,3,4-tetrahydro-1-naphthalenamine Hydrochloride] |  | 6.1 µM | 
15 | CN[C@@H]1CC[C@@H](c2ccc(Cl)cc2)c2ccc(OC)cc21 (relative stereo) [Example 17, Trans-(1S)(1R)-N-methyl-4-(4-chlorophenyl)-7-methoxy-1,2,3,4-tetrahydro-1-naphthalenamine Hydrochloride] | 0.017 µM | 0.042 µM | IC50 [4]: 0.15 µM
16 | CN(C)[C@@H]1CC[C@@H](c2cccc(C(F)(F)F)c2)c2ccccc21 (relative stereo) [Example 18, Trans-(1S)(1R)-N,N-dimethyl-4-(3-trifluoromethylphenyl)-1,2,3,4-tetrahydro-1-naphthalenamine Maleate] | 1.4 µM | 6.1 µM | IC50 [4]: 0.22 µM
17 | CN(C)[C@@H]1CC[C@@H](c2ccc(C(F)(F)F)cc2)c2ccccc21 (relative stereo) [Example 19] | 4.7 µM | 9.8 µM | ED50 [1, 7]: 3.2 to 10 mg/kg
18 | CN(C)[C@@H]1CC[C@@H](c2ccc(Cl)cc2)c2ccccc21 (relative stereo) [Example 20] | 0.13 µM | 0.38 µM | 
19 | CN(C)[C@@H]1CC[C@@H](c2ccc(Cl)c(Cl)c2)c2ccccc21 (relative stereo) [Example 20a] |  | 0.17 µM | 
20 | CN[C@@H]1CC[C@@H](c2ccccc2)c2ccccc21 (relative stereo) [I, Trans-(1S)(1R)-N-- methyl-4-phenyl-1,2,3,4-tetrahydro-1-naphthalenamine hydrochloride, reference compound] | 0.037 µM | 0.21 µM | IC50 [4]: 1.5 µM
21 | CN(C)[C@@H]1CC[C@@H](c2ccccc2)c2ccccc21 (relative stereo) [II, Trans-(1S)(1R)-N,N-- dimethyl-4-phenyl-1,2,3,4-tetrahydro-1-naphthalenamine hydrochloride, reference compound] | 0.14 µM | 0.84 µM | 
22 | N[C@@H](Cc1c[nH]c2ccc(O)cc12)C(=O)O [Example 5HTP, 5-hydroxytryptophan, reference compound] |  |  | behavioral effects of 5HTP by itself ([1]; mice, 100 mg./kg. i.p. 5HTP alone): no clear behavioral effects
23 | COCCCC/C(=N\OCCN)c1ccc(C(F)(F)F)cc1 [fluvoxamine] |  |  | selective block of uptake of serotonin (compared to norepinephrine blockade) (uptake of serotonin): selectively block the uptake of serotonin
24 | CN(C)C/C=C(/c1ccc(Br)cc1)c1cccnc1 [zimelidine] |  |  | selective block of uptake of serotonin (compared to norepinephrine blockade) (uptake of serotonin): selectively block the uptake of serotonin
